# From article PMC8778670, “Identification of an Orally Bioavailable, Brain-Penetrant Compound with Selectivity for the Cannabinoid Type 2 Receptor” (Molecules, 2022)
# Experiment: Stability studies under physiological pH
# Type: physicochemical
# Conditions: 4k compared to 4q, data not reported
structure (smiles),measurement,value
O=C1c2ccc(Cl)cc2N/C(=N/N=C/c2cc3ccccc3s2)[C@@H]2CCCN12 [Compound 4k],tolerance under physiological pH (stability),better tolerance
